Marks after values point to notes of the source that are not given here. [ ]: non-standard residue; d: D form. The star is where a group is joined. Stearoyl = CCCCCCCCCCCCCCCCCC(=O)*; Myristoyl = CCCCCCCCCCCCCC(=O)*; Nle = CCCC[C@H](N)C(=O)O; Nva = CCC[C@H](N)C(=O)O
Key:
male C57BL mice = experiment: Inhibition of starvation-induced insulin resistance (blood glucose after 8 h starvation); assay type: in vivo; details: for inhibition of insulin-resistance developed in the course of starvation: i.p. ~35 mg/kg, 8 h starvation, compared to vehicle; for % blood glucose decrease following 8 h starvation / Mean blood glucose after 8 h starvation (% of time 0): i.p. 1 mg/mouse (~35 mg/kg); for % blood glucose decrease following 8 h starvation: compared with time 0; for inhibition of starvation-induced insulin-resistance (words, FIG. 1): Example 5, 20 mg/kg i.p., relative change in blood glucose compared to time 0 (=100%); for Mean blood glucose after 8 h starvation (% of time 0): level after 8 h starvation compared to t0 (=100%), vehicle 90.3
Protocol: Protocol: Blood glucose was measured in the morning (time 0). The mice were then injected intraperitoneally with a peptide (1 mg/mouse=˜35 mg/kg) or with a vehicle and placed in a cage with water but no food. After 8 hrs starvation, blood glucose was measured again and the mice were supplied with food. […]
The ability of the peptides ACD-403.3, ACD-047.7 and ACD-040.2 described in Example 1 above, to inhibit insulin-resistance induced by starvation was tested in mice (male C57BL mice ˜9-10 wks old).
Peptides' solutions for injection were prepared as follows: 5 mg peptide were dissolved in 1 ml of a solution composed of 5% hydroxypropyl-beta-cyclodextrin (HPβCD)+2% Propylene glycol (PG)+2% Tween-80 in DDW (Wt/Vol). If needed, the solution was warmed up to 80° C. to facilitate peptide solubilization. 0.2 ml of this solution, or from a vehicle (no peptide), were injected i.p. into the mice.
The results, summarized in Table 4 below, are expressed as % change in blood glucose level after 8 h starvation, compared to t0 (=100%), as well as % decrease in blood glucose after 8 hrs starvation, compared with blood glucose at time 0. A higher decrease in glucose levels in the blood indicates better intake of glucose by cells, which reflects better inhibition of the starvation-induced insulin resistance. […]

[1] = system: obese diabetic mice (db/db); experiment: Blood glucose response of obese diabetic (db/db) mice to peptide treatment; assay type: in vivo; details: for Blood glucose: mean, n=3; for % change from time point (−4) in blood glucose: compared to first baseline (241 mg/dL)
Protocol: ACD-004 was tested for its effect on hyperglycemia in obese diabetic mice (db/db).
Protocol: Mice (n=3) were kept on normal, unlimited diet. Prior to peptide treatment, baseline measurements of blood glucose and body weight were taken every ˜3 weeks through a period of 2.5 months (see time points (−1)-(−4) in Table 3 below). Injections of the peptide (intraperitoneally, ˜35 mg/kg) started on time point 0 and continued on time points 1 and 2, twice a day. Blood glucose and body weight were measured at the indicated days.
The results, summarized in Table 3, are expressed as mean % change in blood glucose compared to the first baseline measurement (time point (−4)).
Mice (n=16) were kept on normal, unlimited diet. Injections of the peptide (i.p., 20 mg/kg, n=9) or vehicle (i.p., n=7) started at 3-4 m of age (time point ‘0’) and continued for 3 days, once a day. In a similar experiment the peptide […] were injected to mice with severe diabetes for 7 days.

[2] = DMSO/Brij-97 vehicle, vehicle 14%
[3] = HPβCD/PG/Tween-80 vehicle, vehicle 9.7%

Myr-G-F-T-K-G-Q-V-T-NH2 (Myristoyl-GFTKGQVT-NH2; SMILES CCCCCCCCCCCCCC(=O)NCC(=O)N[C@@H](Cc1ccccc1)C(=O)N[C@H](C(=O)N[C@@H](CCCCN)C(=O)NCC(=O)N[C@@H](CCC(N)=O)C(=O)N[C@H](C(=O)N[C@H](C(N)=O)[C@@H](C)O)C(C)C)[C@@H](C)O) [ACD-005, myristoylated, amidated peptide derived from h-HIF1α]
inhibition of insulin-resistance developed in the course of starvation (male C57BL mice; Example 2): effectively inhibited insulin-resistance
% blood glucose decrease following 8 h starvation (male C57BL mice; [2]): 49%

Myr-G-R-N-F-Q-K-G-Q-V-T-R-NH2 (Myristoyl-GRNFQKGQVTR-NH2; SMILES CCCCCCCCCCCCCC(=O)NCC(=O)N[C@@H](CCCNC(=N)N)C(=O)N[C@@H](CC(N)=O)C(=O)N[C@@H](Cc1ccccc1)C(=O)N[C@@H](CCC(N)=O)C(=O)N[C@@H](CCCCN)C(=O)NCC(=O)N[C@@H](CCC(N)=O)C(=O)N[C@H](C(=O)N[C@H](C(=O)N[C@@H](CCCNC(=N)N)C(N)=O)[C@@H](C)O)C(C)C) [ACD-004, myristoylated, C-terminally amidated peptide derived from h-HO-1]
Blood glucose ([1]; ACD-004 i.p. ~35 mg/kg twice a day at time points 0-2, time point 3, age 18.3 wks): 105 mg/dL
Blood glucose ([1]; ACD-004 i.p. ~35 mg/kg twice a day from time point 0, time point 1, age 17.9 wks): 177 mg/dL
Blood glucose ([1]; ACD-004 i.p. ~35 mg/kg twice a day from time point 0, time point 2, age 18.1 wks): 139 mg/dL
effect on blood glucose levels in diabetic mice ([1]; Example 3, i.p. ~35 mg/kg twice a day): effectively reduced blood glucose levels
% change from time point (−4) in blood glucose ([1]; time point 1): −27%
% change from time point (−4) in blood glucose ([1]; time point 2): −42%
% change from time point (−4) in blood glucose ([1]; time point 3): −56%
inhibition of insulin-resistance developed in the course of starvation (male C57BL mice; Example 2): effectively inhibited insulin-resistance
% blood glucose decrease following 8 h starvation (male C57BL mice; [2]): 47%

Myr-G-R-N-I-Q-K-G-Q-V-T-R-NH2 (Myristoyl-GRNIQKGQVTR-NH2; SMILES CCCCCCCCCCCCCC(=O)NCC(=O)N[C@@H](CCCNC(=N)N)C(=O)N[C@@H](CC(N)=O)C(=O)N[C@H](C(=O)N[C@@H](CCC(N)=O)C(=O)N[C@@H](CCCCN)C(=O)NCC(=O)N[C@@H](CCC(N)=O)C(=O)N[C@H](C(=O)N[C@H](C(=O)N[C@@H](CCCNC(=N)N)C(N)=O)[C@@H](C)O)C(C)C)[C@@H](C)CC) [ACD-047.8]
inhibition of starvation-induced insulin-resistance (words, FIG. 1) (male C57BL mice): inactive

Myr-G-R-N-L-Q-K-G-Q-V-T-R-NH2 (Myristoyl-GRNLQKGQVTR-NH2; SMILES CCCCCCCCCCCCCC(=O)NCC(=O)N[C@@H](CCCNC(=N)N)C(=O)N[C@@H](CC(N)=O)C(=O)N[C@@H](CC(C)C)C(=O)N[C@@H](CCC(N)=O)C(=O)N[C@@H](CCCCN)C(=O)NCC(=O)N[C@@H](CCC(N)=O)C(=O)N[C@H](C(=O)N[C@H](C(=O)N[C@@H](CCCNC(=N)N)C(N)=O)[C@@H](C)O)C(C)C) [ACD-047.7, myristoylated, amidated peptide derived from h-HO-1]
inhibition of insulin-resistance developed in the course of starvation (male C57BL mice; Example 4): effectively inhibited insulin-resistance
inhibition of starvation-induced insulin-resistance (words, FIG. 1) (male C57BL mice): inhibited significantly
% blood glucose decrease following 8 h starvation (male C57BL mice; [3]): 39.2%
Mean blood glucose after 8 h starvation (% of time 0) (male C57BL mice; HPβCD/PG/Tween-80 vehicle): 60.8** %

Myr-G-R-N-Nle-Q-K-G-Q-V-T-R-NH2 (Myristoyl-GRN[Nle]QKGQVTR-NH2; SMILES CCCCCCCCCCCCCC(=O)NCC(=O)N[C@@H](CCCNC(=N)N)C(=O)N[C@@H](CC(N)=O)C(=O)N[C@@H](CCCC)C(=O)N[C@@H](CCC(N)=O)C(=O)N[C@@H](CCCCN)C(=O)NCC(=O)N[C@@H](CCC(N)=O)C(=O)N[C@H](C(=O)N[C@H](C(=O)N[C@@H](CCCNC(=N)N)C(N)=O)[C@@H](C)O)C(C)C) [ACD-047.9]
inhibition of starvation-induced insulin-resistance (words, FIG. 1) (male C57BL mice): inactive

Myr-G-R-N-NorVal-Q-K-G-Q-V-T-R-NH2 (Myristoyl-GRN[Nva]QKGQVTR-NH2; SMILES CCCCCCCCCCCCCC(=O)NCC(=O)N[C@@H](CCCNC(=N)N)C(=O)N[C@@H](CC(N)=O)C(=O)N[C@@H](CCC)C(=O)N[C@@H](CCC(N)=O)C(=O)N[C@@H](CCCCN)C(=O)NCC(=O)N[C@@H](CCC(N)=O)C(=O)N[C@H](C(=O)N[C@H](C(=O)N[C@@H](CCCNC(=N)N)C(N)=O)[C@@H](C)O)C(C)C) [ACD-040.2, myristoylated, amidated peptide derived from h-HO-1]
inhibition of insulin-resistance developed in the course of starvation (male C57BL mice; Example 4): effectively inhibited insulin-resistance
% blood glucose decrease following 8 h starvation (male C57BL mice; [3]): 36.6%
Mean blood glucose after 8 h starvation (% of time 0) (male C57BL mice; HPβCD/PG/Tween-80 vehicle): 63.4** %

Stear-G-R-N-F-Q-K-G-Q-V-T-R-NH2 (Stearoyl-GRNFQKGQVTR-NH2; SMILES CCCCCCCCCCCCCCCCCC(=O)NCC(=O)N[C@@H](CCCNC(=N)N)C(=O)N[C@@H](CC(N)=O)C(=O)N[C@@H](Cc1ccccc1)C(=O)N[C@@H](CCC(N)=O)C(=O)N[C@@H](CCCCN)C(=O)NCC(=O)N[C@@H](CCC(N)=O)C(=O)N[C@H](C(=O)N[C@H](C(=O)N[C@@H](CCCNC(=N)N)C(N)=O)[C@@H](C)O)C(C)C) [ACD-400.3, identical to ACD-004 except N-terminal acyl group is stearoyl instead of myristoyl]
blood glucose following 7-day treatment (words, FIG. 3) ([1]; (db/db) mice with severe diabetes, injected for 7 days, vs vehicle): outstanding decrease in blood glucose
blood glucose following 3-day treatment (words, FIG. 2) ([1]; i.p. 20 mg/kg once a day for 3 days, n=9 vs vehicle n=7): outstanding decrease in blood glucose

Stear-G-R-N-H-Q-K-G-Q-V-T-R-NH2 (Stearoyl-GRNHQKGQVTR-NH2; SMILES CCCCCCCCCCCCCCCCCC(=O)NCC(=O)N[C@@H](CCCNC(=N)N)C(=O)N[C@@H](CC(N)=O)C(=O)N[C@@H](Cc1c[nH]cn1)C(=O)N[C@@H](CCC(N)=O)C(=O)N[C@@H](CCCCN)C(=O)NCC(=O)N[C@@H](CCC(N)=O)C(=O)N[C@H](C(=O)N[C@H](C(=O)N[C@@H](CCCNC(=N)N)C(N)=O)[C@@H](C)O)C(C)C) [ACD-403.3, stearoylated, amidated peptide derived from h-HO-1]
inhibition of insulin-resistance developed in the course of starvation (male C57BL mice; Example 4): effectively inhibited insulin-resistance
% blood glucose decrease following 8 h starvation (male C57BL mice; [3]): 36.7%
Mean blood glucose after 8 h starvation (% of time 0) (male C57BL mice; HPβCD/PG/Tween-80 vehicle): 63.3** %

From US20210171604A1, “PEPTIDES FOR THE TREATMENT OF TYPE 2 DIABETES” (YISSUM RESEARCH DEVELOPMENT COMPANY OF THE HEBREW …, priority 2017, published 2021)
